Two compounds from patent US12263140B1, “Methods of reducing the production of greenhouse gases from animals” (AGRICULTURAL SCIENCES LIMITED, priority 2023, dated 2025) can be followed below.

Format in all cases: in vivo
The subject of data set [1] is sheep. The data set can be described thus: TVOC and HCHO in exhalant breath of sheep dosed with vitamin K3 (skatole proxy). How it is done: A trial was completed comparing the breath of test subject sheep dosed with vitamin K3 versus that of un-dosed sheep.
Total volatile organic compounds were measured in the exhalant breath of sheep. Two measurements were made being: • TVOC (Total Volatile Organic Compounds); and • HCHO (formaldehyde or equivalents).

Data set [2] concerns sheep. The data set can be described thus: Sheep weight gain trial, vitamin K3 in drinking water, 22 days. An excerpt: A trial was completed using three randomly selected Wiltshire hogget wether sheep as the test subjects chosen from a wider group of sheep.
The test subject sheep were allowed access to the dosed water for a total of 5 days, after which the confinement was removed and the test subject and un-dosed control sheep mixed in the same field. From day 6 the test sheep grazed the wider field and received only un-dosed tap water, identical to the control sheep (see below).
The remaining wider group of sheep post removal of the three test subject sheep became the control sheep which were contained in a wider part of the same field as the test subject sheep for the first five days and then mixed with the test subject sheep after five days as noted above. The control sheep had access ad libitum to un-dosed tap water during the first five days of the trial and, as noted, the test sheep and control sheep both had access to the same tap water source ad libitum post the initial five days and to the trial end.
To account for this, two mature ewes from a neighbouring property (“naïve” sheep controls) were introduced to graze in the same field as the control sheep (and post day 5, the control and test sheep). The naïve sheep also had ad libitum access to un-dosed tap water for the duration of the trial. It was envisaged that the naïve sheep would re-infect the control and test sheep with methanogens once in the same field.
The sheep from each group were weighed at the start of the trial and after 22 days had concluded. The weight gain (or loss) was then calculated being the difference between the 22 day weight and that measured at the trial start.

In data set [3] the test system is sheep. Nature of the data set: CO2 in exhalant of sheep dosed with vitamin K3 in drinking water. Conditions: FIG. 24.
In data set [4] the test system is sheep. The data set can be described thus: Metabolic chamber trial of sheep drenched with vitamin K3. The note with it: Example 15 text; stated to be based on earlier experiments using the Douglas Bag technique.
Data set [5] has as its system sheep. Nature of the data set: Sheep methane output trial, vitamin K3 in drinking water. Conditions: approximately 2 g per 20 litres drinking water; 48 h to 148 h, FIG. 21. The procedure: A trial was completed using Wiltshire hogget wether sheep.
The test sheep were able to drink further dosed water ad libitum while control sheep only had ad libitum access to tap water (un-dosed). Methane emitted by the test and control sheep was collected and emissions measured at intervals (48 h, 96 h, 120 h, 148 h).

Data set [6] concerns sheep. Nature of the data set: Metabolic chamber trial of sheep drenched with vitamin K3. The procedure: Six one year old self shedding wether Wiltshire sheep were ranked by body weight and divided in to three strata or blocks. Block one contained the lightest sheep. Block 2 the mid-sized sheep, and Block 3 the heaviest sheep. Each of the sheep in each block was assigned at random to either be a control or experimental (dosed) individual.
The control group were not dosed at all.
Testing was completed at dosing and after 24 hours of methane emissions using a metabolic chamber. • The metabolic chamber used was made of sealed panel. All joints were made gas tight by sealing compounds, and the doors and hatches were made gas tight by rubber seals. The gas-tight metabolic chamber had viewing windows on one side, the top, and the exit door. Sheep entered after being weighed through an entrance door at one end. All doors and hatches were sealed by pull-down latches. • Air was introduced into the chamber by a 25 mm pipe assembly with the intake located in a pure air space area outside the work and animal holding areas. The air was propelled into the chamber by an electric impeller. The flow rate was set at 5 m·s^−1. Air inside the chamber was mixed by carefully placed baffles and an electric impeller to ensure even composition even when the animal burped out methane periodically.
When a sheep was introduced into the chamber it generally took between 2 and 3 minutes before the gas composition equilibrated and stayed constant. Readings were taken for few minutes once the gas levels had stabilised.
The dosing compound used as noted above, was human grade synthetic vitamin K3. This was dosed to the sheep as an aqueous oral fed drench.
A longer trial to the above was then completed with the same sheep.
Methane, carbon dioxide, volatile organic carbon (VOC) gas emissions and weight gain were measured at intervals during the trial time period of 241.2 hours.
Between being brought in for weighing and measuring, the sheep were allowed to graze normally on a grass field.

Setting [7] is: Controls group: un-dosed water in trial, but dosed with vitamin K3 around two months before.
Setting [8] is: Dosed group: 1.87 g in 20 litres drinking water, access for 5 days.

Turning to `CC1=CC(=O)c2ccccc2C1=O` [vitamin K3], in data set [1] (FIG. 22), the “TVOC in breath, less than in un-dosed sheep” value is listed as 4-5 times. In addition, the “impact on favourable indole compounds” value in data set [1] (inventor's observations, dosed sheep thrived) is “no negative impact”. Further, in data set [2] (setting [7]), the Daily weight gain came to 0.064 and the “Wt. Gain (kg) after 22 days” value is given as 1.400 kg. In addition, in data set [2] (setting [8]), the Daily weight gain was 0.238 and the “Wt. Gain (kg) after 22 days” value worked out at 5.233 kg. Further, the “CO2 volume produced, less than control sheep” value in data set [3] came to 3 ×. Further, in data set [4], the “average reduction in carbon dioxide emissions” value was found to be 92%. The “methane emissions levels lower than control sheep” value in data set [5] is 3-4 times. Also, in data set [6] (Example 14, 24 hours post dosing), the “methane in one trial sheep” value was “no detectable trace of methane”. Moreover, the “average reduction in methane emissions versus control sheep” value in data set [6] (Example 14, single drench 75 mg (76 mg) in 15 ml water, dosing to 24 hours) worked out at 96.4%. In data set [6] (Example 15), the “distress during the trial” value is given as “showed no distress”, the “greatest reduction of methane emissions in any sheep” value was 100% and the “lowest value of the emission of methane from any sheep on any occasion” value is “zero”. In data set [6] (Example 15, FIG. 18, metabolic chamber, from 1271 ppm), the “CO2 concentration after dosing, before subtracting air baseline” value is on record as 610 ppm. The “slope of best fit linear equation of mean body weight against HOURS” value in data set [6] (Example 15, FIG. 19, R2=0.781) was 2.18E-01. The “total VOC in exhalant breath” value in data set [6] (Example 15, FIG. 20) is “decreased over time”. In data set [6] (Example 15, single drench 75 mg in 15 ml water, 241.2 hours trial), the “average reduction in methane emissions” value is listed as 80.5%. The “duration of the reduction in methane emissions after the single dose” value in data set [6] (Example 15, whole trial duration, no extra dosing) is 241.2 h.
For vitamin K, in data set [2] (22 days), the “weight gain of control group (dosed two months earlier) relative to naïve sheep” value is given as 4-5 ×. Besides, the animal growth rate entry in data set [6] (Example 15) was “increase in animal growth rate”.
